Measured values: patent US10413556B1, “Production of insulin by testosterone olfaction” (priority 2019, dated 2019)
“And” between values parts separate entries of the source, which are not always exact repeats. Equal values may be shown once.

What was measured:
blood sugar level = experiment: Blood sugar level in men before and after testosterone olfaction; assay type: in vivo
Protocol: To evaluate the possible role of testosterone in blood sugar reduction in diabetes type 2, the following protocol was designed.
Ten men between the ages of 30 to 90 volunteered to participate in this study as subjects. Approximately one and a half hours after having a meal the subject came to Applicant's office. Prior to the testosterone olfaction the blood sugar level was measured.
The subject produced an adequately sized drop of blood from a finger using a lancing device. The blood sugar was measured with a Contour Blood Glucose Monitoring System, Model 9546 C, Serial Number FB00450. The drop of blood was picked up by a Contour blood glucose test strip 7097C specific for the instrument and within the usable date range. This value was recorded as mg/dL.
A drop of pure testosterone diluted 1:1000 in ethanol was sprayed onto the palm of the hand and smelled by the subject. […] This concentration more efficient than the undiluted hormone.
A second blood drop was immediately taken and measured and recorded in the same manner as described above.

[1] = test system: free testosterone production; experiment: Testosterone production after olfaction of testosterone or truffle extract; assay type: in vivo; settings: olfaction of pure testosterone; unpublished research
Description: Olfaction, the sense of smell, is critical for the survival of almost all creatures. Humans are able to distinguish over 10,000 different odor molecules. With every inhalation, currents of air swirl through the nostrils over the bony turbinates in the nose that contain receptors in the olfactory epithelium. Olfactory mucosa protects the olfactory epithelium and allows odors to dissolve for detection by olfactory receptors. The cilia projecting from the olfactory knob contain receptors for odorants. The cilia project from the knob directly into the […]. The interaction of the right molecule with the right receptor causes a structural transformation of the receptor, which gives rise to an electrical signal to the olfactory bulb and thence to the areas in the limbic brain that perceive it as the original smell.
(§1) These studies raised the question: is this action by olfaction unique to testosterone or can the effect be observed with other hormones? To answer this question, Applicant studied progesterone olfaction in 10 postmenopausal women. Progesterone is the primary female sex hormone and testosterone is the primary male sex hormone. […] This is a ground-breaking discovery: smelling the hormones that have been tested caused the body to produce the hormone that is smelled. However, it is still unknown whether hormone olfaction will work with hormones other than sex hormones.

insulin resistance = settings: type 2 diabetic men with low testosterone, weekly injections for 24 weeks; cited from earlier work
progesterone production = experiment: Progesterone olfaction in postmenopausal women; assay type: in vivo; settings: 10 postmenopausal women; unpublished studies
Description: as §1

| SMILES | percent reduction of sugar level, average for all ten (blood sugar level; average of ten subjects, after testosterone olfaction) [%] | PERCENT CHANGE of blood sugar (blood sugar level; individual subject, before vs after olfaction of testosterone 1:1000 in ethanol) | blood sugar AFTER OLFACTION (blood sugar level; individual subject, measured immediately after smelling testosterone diluted 1:1000 in ethanol, about 1.5 h after a meal, finger blood) | effect of other concentrations compared with 1:1000 dilution (blood sugar level; prior studies, other concentrations of testosterone) | effect on blood sugar level (blood sugar level; testosterone olfaction used alone, ten men) | time in which olfaction lowers blood sugar (blood sugar level; time to lance the finger, collect the blood and test) | testosterone production after olfaction [1] | ability to utilize insulin (insulin resistance) | progesterone production after olfaction (progesterone production) |
| --- | --- | --- | --- | --- | --- | --- | --- | --- | --- |
| C[C@]12CC[C@H]3[C@@H](CCC4=CC(=O)CC[C@@]43C)[C@@H]1CC[C@@H]2O [testosterone] | 36 | 56% and 30% (2×) and 38% and 19% and 17% and 34% and 70% and 53% and 12% | 86 mg/dL (2×) and 99 mg/dL (2×) and 109 mg/dL and 107 mg/dL and 130 mg/dL and 158 mg/dL and 98 mg/dL and 92 mg/dL | essentially the same effect | lowers the blood sugar level | about 30 seconds | does initiate testosterone production | improved | – |
| CC(=O)[C@H]1CC[C@H]2[C@@H]3CCC4=CC(=O)CC[C@]4(C)[C@H]3CC[C@]12C [progesterone] | – | – | – | – | – | – | – | – | does initiate production of progesterone |
